| SMILES | melting point [°C] |
| --- | --- |
| CC1(C)CC(=O)Nc2cc(-c3nc4ccccc4[nH]3)ccc21 | 314 to 316 |
| COC(=O)c1cnc(S)n1C1CCCC2CCCCC21 (configuration not stated) | 84 to 86 |
| C=CS(=O)(=O)c1ccc(C)cc1 | 66 |
| CC(C)NP(N)(=O)NC(=O)c1ccc(F)cc1 (configuration not stated) | 197 to 199 |
| COc1ccccc1CNc1ccc2c(CNC(=O)c3ccc(F)cc3)cccc2n1 | 162 |
| CC(=O)NCC[C@@H]1CCc2ccc3nn(C)c(F)c3c21 | 155 to 156 |
| CC(C)c1nc(CCO)n(C)c1Sc1cc(Cl)cc(Cl)c1 | 177 to 178 |
| CCN(CC)c1ccc([N+](=O)[O-])c(C(=O)NCC2CCN(C(c3ccccc3)c3ccccc3)CC2)c1 | 167 to 168 |
| O=c1c(Br)c(CCC2CC2)nc2ccccn12 | 162 to 164 |
| CC(O)CSc1sc(-c2cc[nH]n2)c2c1C(=O)CC(C)(C)C2 (configuration not stated) | 175 to 178 |
| CCN(CC)c1ccc(C2(CNC(=O)Nc3c(C(C)C)cccc3C(C)C)CCCC2)cc1 | 138 to 140 |
| CC(C)N1CCC(CNc2ccc(Cl)cc2C(=O)Nc2ccccn2)CC1 | 118 to 120 |
| O=C(c1ccccc1)c1ccc(NC(=O)C(O)(C(F)(F)F)C(F)(F)F)cc1 | 143 to 146 |
| O=C(Nc1ccc(-c2ccnc3c(C(=O)c4cccs4)cnn23)s1)c1ccccc1 | 162 to 165 |
| CNn1c(N(C)C)n[nH]c1=O | 129 |
| C=CCN(CC=C)c1nc(NC2CC(C)(C)NC(C)(C)C2)nc(NC(C)(C)CC(C)(C)C)n1 | 180 |
| O=c1c2c(Cc3ccccc3[N+](=O)[O-])n[nH]c2c2cccnc2n1-c1cccc(OC(F)(F)F)c1 | 274 to 276 |
| CC(=O)OC1C(CO)OC(n2cnc3c(N)ncnc32)C1OC(C)=O (configuration not stated) | 138 to 139 |
| CCOC(=O)c1coc2cc(NS(C)(=O)=O)c(Oc3ccccc3)cc2c1=O | 167 to 168 |
| O=C1CCc2c1cccc2-c1ccc(C(F)(F)F)cc1 | 75 to 78 |
| CCCCc1cn(-c2c(C)cc(C(C)(C)C)cc2C)c(=O)n1Cc1ccc(-c2ccccc2-c2nnn[nH]2)cc1 | 134 to 135 |
| CC1=NCN2C1=Cc1cncnc1-c1cccc(C(=O)O)c12 | 285 to 287 |
| Cc1[nH]c(C(=O)NCc2ccc(Cl)c(Cl)c2)c(C)c1-c1nc2ccc(C(=O)c3ccccc3)cc2[nH]1 | 141 to 143 |
| COC(=O)C=C(NC1C=CC=CC1(F)NC(=CC(=O)OC)C(=O)OC)C(=O)OC (configuration not stated) | 170 to 174 |

| SMILES | melting point [°C] |
| --- | --- |
| CCCCc1c(Cl)ncnc1Cl | 62 to 63 |
| O=C(O)c1cn(CCCO)c(=O)c2cc(Cl)ccc12 | 193 |
| CNc1nc2ccccc2n(-c2ccc(Cl)cc2)c1=O | 217 to 220 |
| CC(C)(C)C(=O)C=C(c1ccccc1)n1cncn1 | 70 to 73 |
| CCOC(=O)[C@@H](O)[C@@H]1OC(=O)c2ccc(OC)cc21 | 121 to 122 |
| O=C(Nc1ccc(OCCN2CCOCC2)c2ccccc12)c1cc(F)cc(N2CCCCC2)c1 | 150 to 151 |
| COc1nc(C)nc(NC(=O)NS(=O)(=O)c2csc3ccccc23)n1 | 187 to 188 |
| Cc1cccc(NC(=O)NCC(=O)N(c2ccccc2)C(C(=O)OC(C)(C)C)c2ccccc2Cl)c1 (racemic) | 181 |
| O=C(O)c1cc(Cl)cc2c1O[C@@H]1CCCC[C@H]21 (relative stereo) | 132 to 134 |
| NC(=NO)c1ccccc1N | 85 to 86 |
| Cc1nc(-n2cnn(Cc3ccc(F)cc3)c2=O)sc1CO | 164 to 166 |
| COCCOCOc1ccc2cc(C(=O)CNCc3cccc(-c4ccc(Nc5ccccc5C(=O)O)cc4)c3)ccc2c1 | 72 |
| CS(=O)(=O)c1ccc(C(=O)C(=O)c2ccc(F)cc2)cc1 | 174 to 175 |
| O=Cc1cccc2cc3ccccc3cc12 | 126 to 128 |
| Cc1nc2cc(OCc3ccccc3)c(OCc3ccccc3)cc2nc1C(=O)OCc1ccccc1 | 137 to 139 |
| Nc1ccc2nc(CN3CCCC3)ccc2c1 | 102 to 104 |
| COc1ccc(C2(C#Cc3cccc(-c4noc(C(F)(F)F)n4)c3)CCCC(=O)C2)cc1OC1CCCC1 (configuration not stated) | 99 to 100 |
| COc1ccc2cc3c(c(-c4ccc(C)cc4)c2c1)C(=O)NC3=O | 298 to 301 |
| Cc1coc2c1C(=O)CC(c1ccc(F)cc1)C2 (configuration not stated) | 81 to 82 |
| CC(C)(CCCC(=O)O)c1ccc(O)c(C(=O)O)c1 | 136 to 138 |
| Nc1ccccc1C(=O)Nc1ccc(Br)c(C(F)(F)F)c1 | 142 to 144 |
| Cc1ccc(Cc2cnc(NCCCN(C)c3ncc(Br)cn3)[nH]c2=O)cn1 | 137 to 140 |
| O=C(O)c1cc(Br)c2ccccn2c1=O | > 250 |
| CC(C)NC(=O)OCC(=O)c1ccc(Cl)cc1 | 163 to 164 |

| SMILES | melting point [°C] |
| --- | --- |
| CCc1ccc2c(c1)c(-c1ccccc1Cl)c(NC(=O)Nc1ccc(F)cc1F)c(=O)n2C | 192 to 195 |
| NCc1ccc(CN2CCN(c3ncccn3)CC2)cc1 | 70 to 72 |
| Fc1ccc(Nc2ncnc3cnc(N4CCC(N5CCCC5)CC4)nc23)cc1Cl | 202 to 204 |
| CCN1C(=O)C2C3C=CC(CC3)C2(c2ccc(Cl)c(Cl)c2)C1=O (configuration not stated) | 122 to 126 |
| Cc1cc(NCc2ccccc2)c2c(c1)C(c1ccc(C(C)C)cc1)C(C)(C)O2 (configuration not stated) | 80 to 81 |
| COc1ccc(Nc2ccc(Nc3ncnc4cc(-c5ccc(OC)nc5)sc34)cc2)cc1 | 149 to 159 |
| Cn1cc(-c2cccc(C(F)(F)F)c2)c(=O)c(-c2ccccc2Br)c1 | 197 to 199 |
| CC(=O)Nc1nc(CCc2ccc(CCNC(=N)N)s2)cs1 | 122 to 123 |
| C(=Nc1ccc(-c2c[nH]cn2)cc1)Nc1ccccc1 | 123 to 124 |
| CCN1c2ccccc2CC1CNC(=N)N (configuration not stated) | 199 |
| Cc1c(S(=O)(=O)c2ccc(Cl)cc2)csc1-c1nc(-c2c(F)cccc2F)nn1C | 183 to 185 |
| CN1c2ccccc2CN(C(=O)c2ccc(C3CCCCC3)cc2)c2ccccc21 | 104 to 106 |
| COc1nc2ncnc(NCC=C(C)C)c2[nH]1 | 205 to 210 |
| CONCc1nc2c(N)nc3cc(OCc4ccccc4)ccc3c2n1CC1CCOCC1 | 190 to 193 |
| Cc1ccc(S(=O)(=O)OCC2Cc3cc(Cl)cc(OS(=O)(=O)C(F)(F)F)c3O2)cc1 (configuration not stated) | 55 to 57 |
| O=C([C@H](Cc1ccccc1)NC1CCCCC1)N1CCN(C(c2ccc(F)cc2)c2ccc(F)cc2)CC1 | 60 to 64 |
| CCCCCCCCCCCCCCOc1ccc(CN(C(C)=O)c2cccc(CO)c2)cc1 | 65 to 67 |
| CC1CCc2c(c(OCc3ccccn3)nn3c(-c4ccccc4)nnc23)C1 (configuration not stated) | 152 to 154 |
| O=C(O)C1=Cc2ccccc2SC1C(F)(F)F (configuration not stated) | 187 to 190 |
| CC(C)NC1=NS(=O)(=O)c2ccc(CC#N)cc2N1 | 195 to 203 |
| Cc1ccc(C(=O)CCCOC(=O)Nc2ccccc2)cc1 | 106 to 109 |
| Oc1ccnc2ncnn12 | 290 |
| Cc1ccc2c(Cl)ccnc2c1N | 75 to 77 |
| Cc1cc(Cc2ccc(NC(=O)NCCO)cc2)n(C)c1C(=O)c1ccc(Cl)cc1 | 210 |

— a melting point compilation (Tetko et al.; mined from patent text by program, amines drawn as free bases though some values may be those of a salt)
